Reference: patent publication US8110368B1, “Synuclein gamma as a biomarker of obesity and obesity-related disorders” (The United States of America Department of Agriculture, as …, priority 2008, dated 2012)

Experiments:
[1] = tested on: γ-synuclein mRNA in 3T3-L1 adipocytes; assay: γ-synuclein mRNA expression in 3T3-L1 adipocytes treated with PPARγ agonist (quantitative real-time PCR); type: cell-based, murine
Description: 3T3-L1 Adipocyte Differentiation & PPARγAgonist Studies. Results herein were generated using the samples described in our recently-published studies (1). Briefly, murine 3T3-L1 fibroblasts (ATCC, Manassas, Va.) grown to between 5-9 passages were induced to differentiate into adipocytes using a protocol similar to Farmer et al. (i.e., (22)). Two-day-confluent cells grown in high-glucose (25 mM) DMEM and 10% FBS (37° C., 5% CO2) in 6-well rat tail collagen-coated plates were exposed to differentiation medium containing 10 μg/ml bovine insulin (˜1.6 μM), 1 μM dexamethasone, and 0.5 mM 3-isobutyl-1-methylxanthine (IBMX) for 2 days. Cells were grown thereafter in maintenance medium (DMEM/10% FBS+2.5 μg/mL insulin). Cell culture media was replaced daily. Proof-of-principle studies tested the ability of the potent non-thiazoladinedione PPARγ agonist GW1929 (23) to regulate γ-synuclein gene expression at various points in the 3T3-L1 adipocyte differentiation and maturation process, as indicated. For these experiments, cells were cultured for the times and doses indicated in media containing vehicle (DMSO; 0.1% by vol.) or GW1929 (0.1% by vol.). RNA was prepared from 3T3-L1 adipocytes using Trizol-based methods for cell culture samples (Ambion, Austin, Tex.). RNA abundance and integrity were checked using a Nanoprop® ND-1000 Spectrophotometer (Nanoprop Technologies, Wilmington, Del.) and an Agilent 2100 bioanalyzer (Agilent, Foster City, Calif.) per manufacturer's instructions.
Gene Expression Analyses. RNA abundance of γ-synuclein and of other genes of interest were measured in 3T3-L1 adipocyte samples using quantitative real-time PCR, as described in detail previously (1). These assays utilized gene-specific TaqMan primers and FAM-MGB labeled probes (Assays-on-Demand®, Applied Biosystems Inc., Foster City, Calif.) and were run in duplicate or triplicate for each sample using an ABI 7900HT instrument. Primers/probe ABI identifiers for human reagents were γ-synuclein (Hs00268306 ml), leptin (Hs00174877 ml), and 11B-hydroxysteroid dehydrogenase (11β-HSD-1; Hs00194153 ml), and for mouse, γ-synuclein (Mm00488345 ml) and others described previously (1). Mouse and human tissue panel samples, and samples derived from non-obese and obese WAT (24) were assayed using a two-step process with preparation of cDNA from total RNA, followed by quantitative real-time PCR. […] Amplification cycle number (Ct) of 18S for each sample was determined using commercial 18S primers and probe (ABI) to correct for template loading differences across all target genes (ΔCt method: ΔCt=sample Ct−18S Ct), and expression values were determined relative to control transcript levels using a mathematical formula as previously described (1). […]

[2] = tested on: leptin mRNA in 3T3-L1 adipocytes; assay: leptin mRNA expression in 3T3-L1 adipocytes treated with PPARγ agonist (quantitative real-time PCR); type: cell-based, murine; conditions: fully-differentiated 3T3-L1 adipocytes, 18 hr treatment, compared with the γ-synuclein mRNA decrease
Description: 3T3-L1 Adipocyte Differentiation & PPARγAgonist Studies. Results herein were generated using the samples described in our recently-published studies (1). Briefly, murine 3T3-L1 fibroblasts (ATCC, Manassas, Va.) grown to between 5-9 passages were induced to differentiate into adipocytes using a protocol similar to Farmer et al. (i.e., (22)). Two-day-confluent cells grown in high-glucose (25 mM) DMEM and 10% FBS (37° C., 5% CO2) in 6-well rat tail collagen-coated plates were exposed to differentiation medium containing 10 μg/ml bovine insulin (˜1.6 μM), 1 μM dexamethasone, and 0.5 mM 3-isobutyl-1-methylxanthine (IBMX) for 2 days. […]
Gene Expression Analyses. RNA abundance of γ-synuclein and of other genes of interest were measured in 3T3-L1 adipocyte samples using quantitative real-time PCR, as described in detail previously (1). […] Mouse and human tissue panel samples, and samples derived from non-obese and obese WAT (24) were assayed using a two-step process with preparation of cDNA from total RNA, followed by quantitative real-time PCR. […] Amplification cycle number (Ct) of 18S for each sample was determined using commercial 18S primers and probe (ABI) to correct for template loading differences across all target genes (ΔCt method: ΔCt=sample Ct−18S Ct), and expression values were determined relative to control transcript levels using a mathematical formula as previously described (1). […]

## CN(CCOc1ccc(C[C@H](Nc2ccccc2C(=O)c2ccccc2)C(=O)O)cc1)c1ccccn1 [GW1929]
[1]; fully-differentiated 3T3-L1 adipocytes, 18 hr treatment, dose-response, vs vehicle (DMSO)
  decrease of γ-synuclein mRNA abundance: ≤ 50%
[1]; mature fat cells, single dose, short-term (18 hr) exposure
  γ-synuclein expression (direction of change): decrease
[1]; pre-adipocytes and immature adipocytes, single dose, short-term (18 hr) exposure
  γ-synuclein mRNA (direction of change): increased
[2]
  leptin mRNA pattern in response to short-term treatment: paralleled qualitatively

## Cc1c(C)c2c(c(C)c1O)CCC(C)(COc1ccc(CC3SC(=O)NC3=O)cc1)O2 (centres unmarked) [troglitazone]
[1]; 3T3-L1 adipocytes, data not shown
  effective doses required to decrease γ-synuclein and leptin mRNA, compared to GW1929: at least 5 fold
